Assay results taken from patent US12180139B2, “Method for preparing aminoalkanoic acid derivative containing biphenyl group” (AMTIXBIO CO., LTD., priority 2019, dated 2024).

Experiments:
B. cereus (+) = test: Antibacterial MIC test (CLSI); format: cell-based; conditions: MHB liquid medium, 37° C., 24 hours
Procedure: (§1) The MIC test was conducted in accordance CLSI guidelines. […] As a positive control, Nofloxacin and Vancomycin were used.

B. coagulans (+) = test: Antibacterial MIC test (CLSI); format: cell-based; conditions: MHB liquid medium, 37° C., 24 hours
Procedure: as §1

B. subtilis (+) = test: Antibacterial MIC test (CLSI); format: cell-based; conditions: MHB liquid medium, 37° C., 24 hours
Procedure: as §1

E. coli (−) = test: Antibacterial MIC test (CLSI); format: cell-based; conditions: MHB liquid medium, 37° C., 24 hours
Procedure: as §1

L. monocytogenes (+) = test: Antibacterial MIC test (CLSI); format: cell-based; conditions: MHB liquid medium, 37° C., 24 hours
Procedure: as §1

M. luteus (+) = test: Antibacterial MIC test (CLSI); format: cell-based; conditions: MHB liquid medium, 37° C., 24 hours
Procedure: as §1

P. acnes (+) = test: Antibacterial MIC test (CLSI); format: cell-based; conditions: MHB liquid medium, 37° C., 24 hours
Procedure: as §1

S. aureus enterica (−) = test: Antibacterial MIC test (CLSI); format: cell-based; conditions: MHB liquid medium, 37° C., 24 hours
Procedure: as §1

S. aureus (+) = conditions: MHB liquid medium, 37° C., 24 hours
Procedure: (§2) The antibacterial activities against Gram-positive bacteria, Gram-negative bacteria or multi-drug resistant bacteria were evaluated for the compounds of the present invention. The MIC test was conducted in accordance CLSI guidelines. E. coli(−), P. aeruginosa(−), and S. enterica(−) were used as Gram-negative bacteria, B. cereus(+), B. subtilis(+), B. coagulans(+), L. monocytogenes(+), M. luteus(+), P. acnes(+), S. epidermidis(+), and S. aureus(+) were used as Gram-positive bacteria. Methicillin-resistant Staphylococcus aureus (MRSA) was used as multi-drug resistant bacteria. The bacterial cells were incubated until the OD600 of the single colonies reached 0.1. […] Subsequently, bacterial cells were incubated at 37° C. for 24 hours, and then the MICs (μg/ ? ) were determined by visual reading and optical density detection at 600 nm (OD600). As a positive control, Nofloxacin and Vancomycin were used.

S. epidermidis (+) = conditions: MHB liquid medium, 37° C., 24 hours
Procedure: as §2

MRSA = test: Antibacterial MIC test (CLSI); format: cell-based, Methicillin-resistant Staphylococcus aureus; conditions: MHB liquid medium, 37° C., 24 hours
Procedure: as §1

C. neoformans = conditions: RPMI1640 broth, 35° C., 72 hours, visual reading; expressed as a range value
Procedure: (§3) An in vitro antifungal susceptibility test was performed in accordance with the US Clinical and Laboratory Standards Institute (CLSI) guidelines to measure the degree of antifungal activity of the compounds synthesized in the Preparation Examples against opportunistic pathogenic fungi. […] The MIC value (μg/ ? ) is expressed as a range value. Specifically, Candida species and Cryptococcus neoformans were incubated in a Sabouraud dextrose agar (SDA) (Sigma-Aldrich) solid medium for 24 and 48 hours, respectively to obtain single colonies. The obtained single colonies were suspended in 0.85% physiological saline to prepare fungal cell suspension (1 to 5×10^6 cells/ ? ). Fungal cells 2000-fold diluted in RPMI1640 broth (Sigma-Aldrich) were seeded on 96-well plates (5×10^2 to 2.5×10^3 cells/ ? , 195 ? /well). Serial two-fold dilutions (128, 64, 32, 16, 8, 4, 2, 1, and 0.5 μg/ ? ) of compounds were prepared by diluting the compounds synthesized according to the above preparation examples. Then, 5 ? from each dilution was added to the well of the 96-well plate containing fungal cell suspension to give a final suspension of 200 ? per well. […] As a positive control, amphotericin B (AMB), which is highly toxic to the human body but is known as a representative antifungal agent, was used.

C. albicans = conditions: RPMI1640 broth, 35° C., 48 hours, visual reading; expressed as a range value
C. glabrata = conditions: RPMI1640 broth, 35° C., 48 hours, visual reading; expressed as a range value
A. fumigatus = conditions: visual reading; expressed as a range value
Procedure: as §3

| SMILES | MIC B. cereus (+) (B. cereus (+)) [µg/mL] | MIC B. coagulans (+) (B. coagulans (+)) [µg/mL] | MIC B. subtilis (+) (B. subtilis (+)) [µg/mL] | MIC E. coli (−) (E. coli (−)) [µg/mL] | MIC L. monocytogenes (+) (L. monocytogenes (+)) [µg/mL] | MIC M. luteus (+) (M. luteus (+)) [µg/mL] | MIC P. acnes (+) (P. acnes (+)) [µg/mL] | MIC S. aureus enterica (−) (S. aureus enterica (−)) [µg/mL] | MIC S. aureus (+) (S. aureus (+)) [µg/mL] | MIC S. epidermidis (+) (S. epidermidis (+)) [µg/mL] | MIC MRSA (MRSA) [µg/mL] | MIC (μg/mL) C. neoformans (C. neoformans) | MIC (μg/mL) C. albicans (C. albicans) | MIC (μg/mL) C. glabrata (C. glabrata) | MIC (μg/mL) A. fumigatus (A. fumigatus) |
| --- | --- | --- | --- | --- | --- | --- | --- | --- | --- | --- | --- | --- | --- | --- | --- |
| CCCCC(NC)C(=O)Nc1ccc(-c2ccc(Cl)c(Cl)c2)cc1.Cl (racemic) [Compound 35, (R)/(S)-N-(3′,4′-dichloro-[1,1′-biphenyl]-4-yl)-2-(methylamino)hexanamide hydrochloride] | <4 | <4 | <4 | <4 | >64 | <4 | <4 | 64 | 8 | <4 | <4 | 0.5~4 μg/mL | 0.5~4 μg/mL | 0.5~4 μg/mL | 0.5~4 μg/mL |
| CCCCC(N)C(=O)NCc1ccc(-c2ccc(Cl)c(Cl)c2)cc1.Cl (racemic) [Compound 46, (R)/(S)-2-amino-N-((3′,4′-dichloro-[1,1′-biphenyl]-4-yl)methyl)hexanamide hydrochloride] | 16 | 4 | 8 | 32 | 8 | 8 | 8 | 32 | 8 | 8 | 8 | 0.5~4 μg/mL | 2~8 μg/mL | 2~8 μg/mL | 2~8 μg/mL |
| CCCC(NC)C(=O)NCc1ccc(-c2ccc(Cl)c(Cl)c2)cc1.Cl (racemic) [Compound 51, (R)/(S)-N-((3′,4′-dichloro-[1,1′-biphenyl]-4-yl)methyl)-2-(methylamino)pentanamide hydrochloride] | 32 | 4 | 16 | >32 | 16 | 16 | 16 | >32 | 16 | 16 | 16 | 2~8 μg/mL | 4~16 μg/mL | 4~16 μg/mL | 4~16 μg/mL |
| CCC(N)C(=O)NCCc1ccc(-c2ccc(Cl)c(Cl)c2)cc1.Cl (racemic) [Compound 73, (R)/(S)-2-amino-N-(2-(3′,4′-dichloro-[1,1′-biphenyl]-4-yl)ethyl)butanamide hydrochloride] | 32 | <4 | 8 | 8 | 8 | 8 | 8 | 16 | 8 | 8 | 8 | 2~8 μg/mL | 8~32 μg/mL | 8~32 μg/mL | 8~32 μg/mL |
| CCCCC(N)C(=O)NCCc1ccc(-c2ccc(C(F)(F)F)cc2)cc1.Cl (racemic) [Compound 78, (R)/(S)-2-amino-N-(2-(4′-(trifluoromethyl)-[1,1′-biphenyl]-4-yl)ethyl)hexanamide hydrochloride] | 16 | <4 | <4 | 8 | <4 | 8 | >64 | 16 | 8 | 8 | 8 | 2~8 μg/mL | 4~16 μg/mL | 4~16 μg/mL | 4~16 μg/mL |
| CCC(N)C(=O)NCCc1ccc(-c2ccc(OC(F)(F)F)cc2)cc1.Cl (racemic) [Compound 79, (R)/(S)-2-amino-N-(2-(4′-(trifluoromethoxy)-[1,1′-biphenyl]-4-yl)ethyl)butanamide hydrochloride] | 64 | <4 | 16 | 16 | 16 | 16 | 16 | 32 | 16 | 8 | 16 | 8~32 μg/mL | 8~32 μg/mL | 8~32 μg/mL | 8~32 μg/mL |
| CCCCC(N)C(=O)NCCc1ccc(-c2ccc(OC(F)(F)F)cc2)cc1.Cl (racemic) [Compound 81, (R)/(S)-2-amino-N-(2-(4′-(trifluoromethoxy)-[1,1′-biphenyl]-4-yl)ethyl)hexanamide hydrochloride] | 16 | <4 | 4 | 8 | <4 | <4 | 8 | 16 | 8 | 8 | 8 | 2~8 μg/mL | 2~8 μg/mL | 2~8 μg/mL | 2~8 μg/mL |
| CCCC(NC)C(=O)NCCc1ccc(-c2ccc(Cl)c(Cl)c2)cc1.Cl (racemic) [Compound 84, (R)/(S)-N-(2-(3′,4′-dichloro-[1,1′-biphenyl]-4-yl)ethyl)-2-(methylamino)pentanamide hydrochloride] | 32 | 8 | 16 | >32 | 16 | 16 | 16 | >32 | 16 | 16 | 16 | 2~8 μg/mL | 4~1 μg/mL | 4~1 μg/mL | 4~1 μg/mL |
| CCCCC(NC)C(=O)NCCc1ccc(-c2ccc(Cl)c(Cl)c2)cc1.Cl (racemic) [Compound 85, (R)/(S)-N-(2-(3′,4′-dichloro-[1,1′-biphenyl]-4-yl)ethyl)-2-(methylamino)hexanamide hydrochloride] | 32 | 4 | 16 | >32 | 16 | 8 | 16 | >32 | 16 | 16 | 16 | 0.5~4 μg/mL | 0.5~4 μg/mL | 0.5~4 μg/mL | 0.5~4 μg/mL |
| CCC(NC)C(=O)NCCc1ccc(-c2ccc(C(F)(F)F)cc2)cc1.Cl (racemic) [Compound 86, (R)/(S)-2-(methylamino)-N-(2-(4′-(trifluoromethyl)-[1,1′-biphenyl]-4-yl)ethyl)butanamide hydrochloride] | 64 | <4 | 32 | 32 | 16 | 16 | 16 | 64 | 32 | 16 | 32 | 8~32 μg/mL | 16~64 μg/mL | 16~64 μg/mL | 16~64 μg/mL |
